Measured values: paper PMC12866823, “The Pivotal Role of GR‐CAR Pathway in Fetal Programming of Hepatic Cytochrome P450 3A Alteration in Adulthood” (Advanced Science, 2025)

Tests used:
[1] = tested on: bone marrow mesenchymal stem cells hepatoid differentiated cell (BHDC); assay: Treatment of BHDC: mRNA, protein, ChIP-PCR and CoIP readouts; assay type: cell-based, rat; details: for interaction between GR and P300/CBP (co-immunoprecipitation): 500 x 10^-9 M DEX or 1200 x 10^-9 M CORT; for gene and protein expression of P300/CBP, binding of GR-P300/CBP to CAR promoter, acetylation levels of H3K9 and H3K27: dose-dependent
Description: Protocols for preparing BMSCs and the hepatoid‐differentiated cells (BHDCs) were based on our prior study.^[ [98] ^] BMSCs were harvested from PW3 male rats and cultured at a density of 4 × 10^5 cells per well in six‐well plates with growth medium (αMEM with 10% fetal bovine serum (FBS), […] streptomycin, and 100 U mL^−1 penicillin).
All primers are listed in Table S2 (Supporting Information).
Results were quantified using Image J Launcher.
Cells were cross‐linked with 1% formaldehyde at room temperature, and glycine (final concentration 125 × 10^−3 M) was added to terminate the reaction.^[ [105] ^] The suspensions were sonicated to obtain 200‐800 bp DNA fragments, and then were incubated with Agarose‐protein A/G beads and divided into multiple portions. Corresponding antibodies (H3K9ac, H3K14ac, H3K27ac, H3K4me2, H3K27me3, GR, and CAR) and IgG were added and shaken overnight at 4 °C for immunoprecipitation, followed by the addition of 200 µg mL^−1 proteinase K at 65 °C overnight. DNA was isolated from each immunoprecipitation and subjected to RT‐qPCR analysis. The Jaspar database was consulted to query gene transcription binding sites.^[ [107] ^] Primers for amplification of multiple regions of the CAR promoter were designed using the UCSC Genome Browser (http://genome.ucsc.edu/) and Primer 3 Input Browser (http://primer3.ut.ee/). The primer sequences are listed in Table S4 (Supporting Information). Data from RT‐qPCR were used to calculate the abundance of proteins enriched in the promoters of each gene using the following formula: IP/input = 100 × 2^Ct input DNA – Ct IP DNA.
Tissue and cell lysates were collected, and protein concentrations were quantified using a BCA protein quantification kit. Protein A agarose gel beads (20 to 40 µL) were washed 2 to 3 times with lysis buffer and centrifuged at 3000 rpm for 5 min each time. Between 500 and 1000 µL of homogenized lysis supernatant from tissues or cells were transferred to a clean EP tube, and 1–10 µL of specific primary antibody was added to incubate overnight at 4 °C. IgG from the same species served as a negative control. Subsequently, 20 µL of A/G agarose gel beads were added, and the mixture was incubated for 3‐4 h at 4 °C. After incubation, the sample was centrifuged at 1000 g for 5 min at 4 °C to collect the immunoprecipitated complexes; the mixture was then washed 3‐4 times with 1 mL ice‐cold IP lysate (without protease inhibitor) by centrifugation at 3000 g for 5 min. Following the final wash, 40 µL of 1 × SDS loading buffer containing mercaptoethanol was added, boiled for 10 min at 100 °C, centrifuged at 1000 g for 5 min at 4 °C, and 15–20 µL of supernatant was used for WB assay.

GR = assay: Dual-luciferase assay of transcriptional function of GR on CAR; assay type: cell-based, human; details: with DEX treatment
Description: The dual‐luciferase reporter plasmid of pTol2‐cmv‐Fluc‐bGH polyA‐EF1α‐Rluc‐polyA was synthesized by Tsingke company and worked as a positive control. Overlapping PCR was performed to generate insert of the target gene promoter base on HepG2 genomic DNA template. Employing Hifi assembly kit, promoter fragments were inserted into SpeI/NtoI site of reporter vector, and coding sequences were inserted into XbaI/XhoI site of pTol2‐EGFP‐polyA plasmid. 48 h after transfection, cells were collected for dual‐luciferase assay according to Promega luciferase kit instructions. The primers for overlap PCR are listed in Table S5 (Supporting Information).

LS174T = assay: Treatment of LS174T with hydrocortisone; assay type: cell-based, human
Description: (§1) Cells and liver samples were subjected to RNA isolation using a TRIZOL reagent. Process of RNA extraction and cDNA preparation was according to our prior work.^[ [103] ^] qPCR was performed using the Cham Q TM Universal SYBR® qPCR Master Mix on the QuantStudio®5 Real‐Time PCR System (Thermo Scientific, Waltham, MA, USA) for detection. All primers are listed in Table S2 (Supporting Information). Target gene expression was standardized using housekeeping gene and computed using the 2^−ΔΔCt methodology. For the gene expression levels assayed in each tissue of fetal mice, n indicates a litter (with each n ranging from 11‐12).
(§2) Total protein was extracted from the liver and cells using RIPA lysis buffer, and protein concentration was determined using a bicinchoninic acid (BCA) assay. Nuclear proteins were extracted using the Nuclear Protein Extraction Kit (no. P0028, Beyotime Institute of Biotechnology, Shanghai, China).^[ [104] ^] To verify the purity of extracted cellular fractions, we examined the levels of cytoplasmic localization proteins (ACTB and GAPDH) and nuclear localization protein (H3) in cytoplasmic and nuclear samples, respectively. […] Details of the western blot procedure have been described previously.^[ [105] ^] […] Results were quantified using Image J Launcher. […]

HepG2 = assay: Treatment of HepG2 with hydrocortisone; assay type: cell-based, human
Description: as §1, §2

[2] = tested on: rat fetal primary hepatocytes; assay: Treatment of rat fetal primary hepatocytes: mRNA and protein expression; assay type: cell-based; details: DEX 20-500 x 10^-9 M or CORT 300-1200 x 10^-9 M, concentration-dependent
Description: as §1
Total protein was extracted from the liver and cells using RIPA lysis buffer, and protein concentration was determined using a bicinchoninic acid (BCA) assay. Nuclear proteins were extracted using the Nuclear Protein Extraction Kit (no. P0028, Beyotime Institute of Biotechnology, Shanghai, China).^[ [104] ^] To verify the purity of extracted cellular fractions, we examined the levels of cytoplasmic localization proteins (ACTB and GAPDH) and nuclear localization protein (H3) in cytoplasmic and nuclear samples, respectively. […] Details of the western blot procedure have been described previously.^[ [105] ^] […] Results were quantified using Image J Launcher.

[3] = 500 x 10^-9 M DEX with 10 x 10^-6 M RU486 or 100 x 10^-9 M GR siRNA
[4] = DEX 20-500 x 10^-9 M or CORT 300-1200 x 10^-9 M
[5] = 0, 300, 600, 1200 nM, concentration-dependent

CC#C[C@]1(O)CC[C@H]2[C@@H]3CCC4=CC(=O)CCC4=C3[C@@H](c3ccc(N(C)C)cc3)C[C@@]21C [RU486, mifepristone]
effect on GR protein nuclear translocation and CYPs expression induced by DEX ([1]; 10 x 10^-6 M with 500 x 10^-9 M DEX): significantly inhibited protein nuclear translocation of GR and expression of CYPs induced by DEX treatment | effect on CAR induction by DEX [1, 3]: suppressed | effect on DEX induction of P300/CBP expression, P300/CBP binding to CAR promoter and H3K9/H3K27 acetylation [1, 3]: reversed the induction of P300/CBP expression, the binding of P300/CBP to the CAR promoter, and the acetylation levels of H3K9 and H3K27 by DEX | effect on transcriptional activity of GR (on CAR) induced by DEX (GR): blocked transcriptional activity of GR induced by DEX

C[C@@H]1C[C@H]2[C@@H]3CCC4=CC(=O)C=C[C@]4(C)[C@@]3(F)[C@@H](O)C[C@]2(C)[C@@]1(O)C(=O)CO [DEX, dexamethasone]
interaction between GR and P300/CBP (co-immunoprecipitation) [1]: significantly enhanced | gene and protein expression of P300/CBP, binding of GR-P300/CBP to CAR promoter, acetylation levels of H3K9 and H3K27 [1, 4]: significantly induced

C[C@]12CCC(=O)C=C1CC[C@@H]1[C@@H]2[C@@H](O)C[C@@]2(C)[C@H]1CC[C@]2(O)C(=O)CO [hydrocortisone]
expression of downstream genes (LS174T; [5]): could significantly induce the expression of downstream genes | related indicators and nuclear translocation of GR and CAR (LS174T; 1200 x 10^-9 M): significantly increased | expression of downstream genes (HepG2; [5]): could significantly induce the expression of downstream genes | related indicators and nuclear translocation of GR and CAR (HepG2; 1200 x 10^-9 M): significantly increased

C[C@]12C[C@H](O)[C@H]3[C@@H](CCC4=CC(=O)CC[C@@]43C)[C@@H]1CC[C@@H]2C(=O)CO [CORT, corticosterone]
interaction between GR and P300/CBP (co-immunoprecipitation) [1]: significantly enhanced | CYP3A and CYP2B expression, gene and protein levels ([1]; DEX 20-500 x 10^-9 M or CORT 300-1200 x 10^-9 M, 24 h, concentration-dependent): significantly induced CYP3A and CYP2B expression at both the gene and protein levels | gene and protein expression of P300/CBP, binding of GR-P300/CBP to CAR promoter, acetylation levels of H3K9 and H3K27 [1, 4]: significantly induced | CYP3A and CYP2B expression, gene and protein levels [2]: significantly induced CYP3A and CYP2B expression at both the gene and protein levels

C=C1[C@@H](O)[C@@H]2O[C@]3(CC[C@H](/C=C/[C@@H](C)[C@@H]4CC(C)=C[C@@]5(O[C@H](C[C@@](C)(O)C(=O)O)CC[C@H]5O)O4)O3)CC[C@H]2O[C@@H]1[C@@H](O)C[C@H](C)[C@H]1O[C@@]2(CCCCO2)CC[C@H]1C [OA, okadaic acid]
effect on DEX-enhanced total and nuclear protein levels of CAR ([1]; 10 x 10^-9 M OA with DEX): reversed | expression of downstream CYP3A and CYP2B ([1]; 10 x 10^-9 M OA with or without DEX): significantly reduced the expression of downstream CYP3A and CYP2B with or without DEX incubation
